From PubChem BioAssay AID179 (DTP/NCI, 2004)
The source made the active and inactive calls.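 The calls were made as follows: active = compounds giving half or more protection of infected cells from virus-caused growth loss, again on retest; inactive = the rest.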

Tested on: CEM cells HIV-1 protection, formazan growth assay
Test: NCI AIDS Antiviral Assay
Conditions: for IC50: measured here: growth of uninfected CEM cells
Procedure, shortened: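 Category rules: moderately active means at least 50% protection on retest, and confirmed active means 100% protection reproducibly. The underlying data came from a formazan growth assay in HIV-1-infected CEM cells.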

SMILES | outcome | EC50 | IC50
Oc1ccc2occ3c2c1CCC3 | inactive | – | –
O=c1oc2ccccc2[n+]([O-])c1-c1ccccc1 | – | > 1050 µM | > 1050 µM
Cc1cc2nc3ccccc3n2c2nc(N)ccc12 | – | > 200 µM | 6.61 µM
Cc1ccc(Sc2ccc(C)cc2[N+](=O)[O-])c([N+](=O)[O-])c1 | – | > 97.7 µM | > 97.7 µM
O=c1c2cncnc2sc2nccn12 | – | > 200 µM | > 200 µM
CCOC(=O)c1cc(Cl)cc2c(=O)c3c(O)c4[nH]c5c(C(=O)OCC)cc(Cl)cc5c(=O)c4c(O)c3[nH]c12 | – | > 100 µM | 4.9 µM
CCOC(=O)/C(=C\c1cccc(Cl)c1)P(=O)(OCC)OCC | – | > 380 µM | 81.3 µM
Cc1ccc(S(=O)(=O)N2CCC[C@@H]2C(=O)O[C@@H]2CCC3CC=CC32)cc1 (stereo not given in full) | – | > 200 µM | 12.6 µM
O=C(CSc1nnc(Cc2ccccc2)o1)Nc1ccc(Cl)cc1 | – | > 100 µM | 72.4 µM
Cc1ccccc1C(=O)c1ccccc1C(=O)O | – | 200 µM | 617 µM
CN1C=C(C(N)=O)Cc2ccsc21 | – | > 1290 µM | 66.1 µM
O=C(Nc1ccccc1)c1cc(S(=O)(=O)Nc2n[nH]c(=O)n2-c2ccccc2)c(S)cc1Cl | – | 89.1 µM | > 200 µM
CC1(C)C(=NO)C(C)(C)C1=NO | inactive | – | –
CC1OC(OC2C(O[C@H]3CC[C@@]4(C)C(=CC[C@H]5[C@@H]6C[C@@H]7O[C@]8(CC[C@@H](C)CO8)[C@@H](C)[C@@H]7[C@@]6(C)CC[C@@H]54)C3)OC(CO)C(O)C2OC2OC(CO)C(O)C(O)C2O)C(O)C(O)C1O (stereo not given in full) | – | > 200 µM | 1.17 µM
O=C(Nc1ccccn1)Nc1cc(C(F)(F)F)ccc1Cl | – | > 200 µM | 182 µM
CC1CC(c2ccc(Cl)cc2)=Nc2ccccc2S1 (stereo not given) | – | > 6.92 µM | > 6.92 µM
CC1(C)C2CCC13CS(=O)(=O)N=C3C2 (stereo not given) | inactive | – | –
C=C1C(=O)OC2CC(C)C(C(O)CC(C)O)=CCC12 (stereo not given) | – | > 447 µM | 8.32 µM
CC(=O)NCCSSCc1ccccc1CS(=O)O | – | > 200 µM | 105 µM
Cc1cn(C2CC(ON)C(CO)O2)c(=O)[nH]c1=O (stereo not given) | – | > 200 µM | > 200 µM
C1CSCCSCCCSCCSCCCSCCSC1 | – | > 200 µM | > 200 µM
CN(C)c1ccc(C(C#N)NNC(=O)Cc2ccccc2)cc1 (stereo not given) | – | > 85.1 µM | > 85.1 µM

SMILES | outcome | EC50 | IC50
CC1(C)OOC(O)C=C1c1ccccc1 (stereo not given) | – | > 126 µM | > 126 µM
COc1cccc2c1C(=O)c1c(O)c3c(c(O)c1C2=O)C[C@@](O)(C(C)=O)C[C@@H]3OC1CC(N(Cc2ccccc2)Cc2ccccc2)C(O)C(C)O1 (stereo not given in full) | inactive | – | –
CCOC(=O)C(NC(=O)CC)(Nc1cc(C)on1)C(F)(F)F (stereo not given) | – | > 200 µM | > 200 µM
Cc1ccc(Nc2nc(N)[nH]c(=O)c2N=O)cc1 | – | > 200 µM | 14.8 µM
CCOC(=O)C1=CC(C(=O)OCC)=C2C=CC=C3C=CC=C1N32 | – | > 57.5 µM | 12.9 µM
CC#CC#C/C=C1\C=CC2(OC=CC2OC(C)=O)O1 (stereo not given) | inactive | – | –
CCC1Sc2cc(OC)cc3c2N(CCN3)C1=O (stereo not given) | – | > 200 µM | 57.5 µM
C(=N\NC1=NCCCN1)/c1ccc(-c2cn3cc(/C=N/NC4=NCCCN4)ccc3n2)cc1 | – | > 100 µM | 18.6 µM
NS(=O)(=O)c1ccc(N=Nc2c(O)n(-c3ccccc3)n(-c3ccccc3)c2=O)cc1 | – | > 200 µM | 79.4 µM
O=C1NC(=O)C(C(=O)C(=O)Nc2ccc(Br)cc2)C(=O)N1 | – | > 191 µM | > 191 µM
CCOC(=O)Nc1ccc2nc(Sc3ccc(C)cc3)sc2c1 | – | > 20.9 µM | 1.23 µM
COc1ccc(/C=C(\C#N)c2nc(-c3cc4ccccc4oc3=O)cs2)cc1 | – | 162 µM | > 200 µM
CC(C)CC(=O)[O-].N.N.N.N.N.[Co+3].[O-][Cl+3]([O-])([O-])[O-] | inactive | – | –
O=C1C=CC2(CCCCCCC2=O)CC1 (stereo not given) | inactive | – | –
CC(=O)OCC1OC(n2c(C)c(N=Nc3ccc(Cl)cc3)c(C)c(C#N)c2=S)C(OC(C)=O)C(OC(C)=O)C1OC(C)=O (stereo not given) | – | > 200 µM | > 200 µM
C=C(Cn1cnc2c(N)ncnc21)C(=O)OCC | inactive | – | –
COc1cc(CC(C(=O)OC(C)(C)C)C(=O)OC(C)(C)C)c(NC(C)=O)c(OC)c1OC | – | > 200 µM | > 200 µM
COC[n+]1cc2cc(OC)c(OC)cc2c2ccc3cc(OC)c(OC)cc3c21 | – | > 31.6 µM | > 31.6 µM
C/C(=C\C(=O)OCCCCCCCC(=O)Nc1c2sscc-2[nH]c1=O)C(O)[C@@H]1OCC(C/C=C/[C@@H](C)[C@H](C)O)[C@@H](O)[C@H]1O (stereo not given in full) | – | > 200 µM | 3.16 µM
CCS[C@@H]([C@@H](COC(C)=O)OC(C)=O)[S@](=O)CC | – | > 200 µM | 26.3 µM
CCOC(=O)NNC(=O)C1CSC(c2ccccc2)N1C(C)=O (stereo not given) | – | > 200 µM | > 200 µM
COc1ccc2c(O)c(Cl)c(=O)oc2c1 | – | > 200 µM | > 200 µM

SMILES | outcome | EC50 | IC50
c1ccc(C[P+]2(c3ccccc3)c3ccccc3-c3ccccc32)cc1 | – | > 200 µM | > 200 µM
N#CCCCCn1cnc2c(N)ncnc21 | – | > 200 µM | > 200 µM
COC(=O)N/N=C(\c1nc2ccc(Cl)cc2[nH]c1=O)C(O)c1ccc([N+](=O)[O-])cc1 (stereo not given) | – | > 575 µM | 550 µM
Cc1ccc(NC(=S)N/C=C(\c2ccccc2)S(=O)Cc2ccccc2)c(C)c1 (stereo not given) | – | > 200 µM | 93.3 µM
O=c1cc(O)cc2n1CCC2 | – | > 1660 µM | > 1660 µM
O=C(N/N=C(/c1ccccc1)C(F)(F)F)c1ccncc1 | – | > 200 µM | > 200 µM
Cc1cnc2c(ccc3c(C)c(C)c(C)nc32)c1C.Cc1cnc2c(ccc3c(C)c(C)c(C)nc32)c1C.O=C1OC(C(O)C[O-])C(O)=C1O.[Cu+] | – | > 25.1 µM | 1.29 µM
O=C(ON=C1c2ccccc2C(Br)C(Br)c2ccccc21)c1cc([N+](=O)[O-])cc([N+](=O)[O-])c1 (stereo not given) | – | > 200 µM | 0.851 µM
O=C(CCCC[n+]1ccccc1)Sc1ccccc1C(=O)Nc1ccc(S(=O)(=O)Nc2nccs2)cc1 | – | 13.5 µM | 91.2 µM
Cc1cn(C2CCC(CO)O2)c(=O)[nH]c1=O (stereo not given) | – | 162 µM | > 200 µM
C=CCOCCC(CC=C)C(=O)CC(=O)OC (stereo not given) | – | > 251 µM | 195 µM
O=C(/C(=C(/Br)I)c1ccccc1)c1ccccc1 | – | > 200 µM | 27.5 µM
NC(=O)NCCCC(NC(=O)OCCCCCn1ccc(=O)[nH]c1=O)C(=O)O (stereo not given) | – | > 100 µM | > 100 µM
COc1cc(C(=O)NC2CCc3cc(OC)c(OC)c(OC)c3-c3ccc(OC)c(=O)cc32)cc(OC)c1OC (stereo not given) | – | > 0.2 µM | 0.0661 µM
Cc1cc2cc3c(C)cc(=O)oc3c(C)c2o1 | – | > 56.2 µM | > 56.2 µM
CO/N=C\c1ccc2c(c1)Sc1ccccc1O2 | – | > 200 µM | > 200 µM
COc1cc2c([C@@H](OC(=O)c3ccccc3)c3ccc4c(c3)OCO4)nccc2c(OC)c1OC | inactive | – | –
OC(c1ccsc1)c1cc2ccccc2s1 (stereo not given) | – | > 200 µM | 107 µM
CCOC(=O)C(=Cn1ccc(=O)[nH]c1=S)C(=O)OCC | – | > 200 µM | > 200 µM
Nc1ncnc2oc(-c3cccs3)nc12 | – | > 200 µM | > 200 µM
CCCCCCCCCCCC(=O)OCCOCCOCCOCCOCCOCc1ccccc1 | inactive | – | –
